Measured values as given in PMC11475281, “A Novel Liver Cancer-Selective Histone Deacetylase Inhibitor Is Effective against Hepatocellular Carcinoma and Induces Durable Responses with Immunotherapy” (ACS Pharmacology & Translational Science, 2024).
Where two headings read alike, the source gives them in different places.

Experiments:
[1] = test system: Hep-G2 cells; experiment: GLUT-2 uptake experiment (phloretin blockade, MTS); assay type: cell-based; details: Homo sapiens, read-out: Hep-G2 Cell Viability %; for viability at 6.25 µM: HepG2, 6.25 μM; for viability at 12.5 µM: HepG2, 12.5 μM; for viability at 1.25 µM: HepG2, 1.25 μM; for viability at 2.5 µM: HepG2, 2.5 μM
Procedure: We observed that Ph selectively mitigated the cytotoxicity of STR-V-53 against the Hep-G2 cell line with no apparent effect on the cytotoxicity of SAHA (Figure 2a). […] This matches our expectation because Hep-G2 cells overexpress GLUT-2 while VERO has limited expression of GLUT-2.[26]
MIDI 4-20% gel (Biorad, cat. 5671093) and ran at 150 V for 70 min. The gel was then transferred onto the Turbo PDVF membrane (Biorad, 1704273), and after blocking with 5% BSA for 1-2 h, the membrane was incubated overnight with primary antibodies Ac-Tubulin (sc-23950), Ac-H4 (sc-515319) (Santa Cruz Biotechnology), caspase 3 and clv-Caspase 3 (Cell signaling Technology), anti-p21WAF/CIP (ThermoFisher), anti-GAPDH (Aldrich-Sigma). On the second day, the membrane was washed with TBST for 3x5 min; a secondary antibody (LiCOR) was added, and the membrane was incubated with agitation for 1 h. After washing with TBS-T 3x5 mins, bands were quantified using the Odyssey CLx Image system.
(§1) Hep-G2 or VERO cells were seeded (2500 to 4,000 counts/well) into 96-well plates, in which each well contains 100 µL media. The cells were cultured overnight in the respective media described in the cell culture section above. On day 2, the cells were treated with 25 µM Phloretin for 24 h. On day 3, 200x stock solutions of STR-V-53 and SAHA were used to prepare 2x treatment solution by adding 1% stock solution in the media. Then, without removal of the media in 96-well plates, the same volumes of drug as the media were added directly to the wells with gentle pipetting to reach 1x drug solution with 25 µM Ph. After another 72 h, the media were removed, and new media (100 µL) added to the wells. MTS solution (20 µL) was added to each well. After 2.5-4 h incubation, the plates were read using a multiplate reader at 490 nm. The data were processed using GraphPad Prism 8.
Hep-G2 cells (5*106) were seeded in a 10 cm plate with MEM and incubated until 50% confluency before drug treatment. Cells were treated, with DMSO (control) and DMSO solutions of SAHA (5 µM) and STR-V-53 (15 µM) such that the final DMSO level was 0.1%,

[2] = test system: GLUT-2; experiment: GLUT-2 uptake experiment (phloretin blockade, MTS); assay type: cell-based; details: African green monkey, VERO cells, with phloretin 25 µM, Pre-treated with 25 μM Ph, read-out: VERO Cell Viability %
Procedure: (§2) We observed that Ph selectively mitigated the cytotoxicity of STR-V-53 against the Hep-G2 cell line with no apparent effect on the cytotoxicity of SAHA (Figure 2a). […] This matches our expectation because Hep-G2 cells overexpress GLUT-2 while VERO has limited expression of GLUT-2.[26] […]
as §1, with “8. […]” for “8.”

[3] = GLUT-2 uptake experiment (phloretin blockade, MTS); assay type: cell-based; details: African green monkey, VERO cells, No addition of Ph, read-out: VERO Cell Viability %
Procedure: as §2
as §1, with “8. […]” for “8.”

[4] = test system: Hep-G2 cells; experiment: Immunoblotting of PD-L1 and PD-1 expression; assay type: cell-based, human; details: 24 h, SAHA 5 and 10 μM, STR-V-53 10 and 20 μM
Procedure: (§3) Figure 3 Effects of STR-V-53 on intracellular markers of HDAC inhibition, antitumor immune response, and apoptosis. (a) STR-V-53 upregulates the levels of acetylated H4 and tubulin in Hep-G2 cells. Hep-G2 cells were treated with DMSO or 0.1% DMSO solution of SAHA (1.25 μM) and STR-V-53 (1.25 μM, 2.5 μM). Cells were treated for 5 h before lysis. Data are from two independent experiments. (b) STR-V-53 upregulates PD-L1 and downregulates PD-1 expressions in Hep-G2 cells. Cells were treated with DMSO or 0.1% DMSO solution of SAHA (5 μM and 10 μM) and STR-V-53 (10 and 20 μM) for 24 h. (c) STR-V-53 and SAHA caused upregulation of the levels of CD54 in the Hep-G2 cell line. Cells were treated with DMSO or 0.1% DMSO solution of SAHA (5 and 10 μM) and STR-V-53 (5, 10, and 20 μM) for 24 h. […] Cells were treated with DMSO or 0.1% DMSO solution of SAHA (5 μM) and STR-V-53 (10 and 20 μM).
One of the consequences of histone deacetylase inhibition is the alteration of tumor immunogenicity in favor of enhanced antitumor immune responses.[28],[29] Specifically, HDACi robustly upregulates PD-L1 in human and murine cell lines and patient tumors.[30],[31] To investigate the effects of our glycosylated HDACi on immune checkpoint molecules, we used immunoblotting to probe for the expression levels of PD-L1 and PD-1 in Hep-G2 cells incubated with lead compound STR-V-53 for 24 h. We used SAHA and DMSO as positive and negative controls, respectively.

[5] = test system: Hep-G2 cells; experiment: Immunoblotting of CD54 (ICAM-1) expression; assay type: cell-based, human; details: 24 h, STR-V-53 at IC50 and 2× IC50
Procedure: as §3
HDACi regulates the expression levels of other tumor antigens such as CD40, CD54 (ICAM-1), CD80, and CD86 in tumor cells.[32]−[35] More specifically, the repression of CD54 expression is another strategy tumors use to escape the immune response.[36] […] To investigate the effect of our glycosylated HDACi on the expression of CD54, we incubated Hep-G2 cells with STR-V-53 at IC50 and 2× IC50 for 24 h. We used immunoblotting to determine the effect of this treatment on CD54 expression. […]

| SMILES | viability at 6.25 µM ([1]; No addition of Ph) [%] | viability at 6.25 µM ([1]; Pre-treated with 25 μM Ph) [%] | viability at 12.5 µM ([1]; No addition of Ph) [%] | viability at 12.5 µM ([1]; Pre-treated with 25 μM Ph) [%] | viability at 72 h, 75 µM ([2]; 75μM) [%] | viability at 72 h, 100 µM ([2]; 100μM) [%] | viability at 72 h, 75 µM ([3]; 75μM) [%] | viability at 72 h, 100 µM ([3]; 100μM) [%] | PD-1 expression level [4] | PD-L1 expression level [4] | CD54 expression [5] | viability at 1.25 µM ([1]; No addition of Ph) [%] | viability at 1.25 µM ([1]; Pre-treated with 25 μM Ph) [%] | viability at 2.5 µM ([1]; No addition of Ph) [%] | viability at 2.5 µM ([1]; Pre-treated with 25 μM Ph) [%] | viability at 72 h, 6.5 µM ([2]; 6.5 μM) [%] | viability at 72 h, 12.5 µM ([2]; 12.5 μM) [%] | viability at 72 h, 6.5 µM ([3]; 6.5 μM) [%] | viability at 72 h, 12.5 µM ([3]; 12.5 μM) [%] |
| --- | --- | --- | --- | --- | --- | --- | --- | --- | --- | --- | --- | --- | --- | --- | --- | --- | --- | --- | --- |
| O=C(CCCCCCn1cc(-c2ccc(O[C@H]3O[C@H](CO)[C@@H](O)[C@H](O)[C@H]3O)cc2)nn1)NO [STR-V-53] | 104 | 103 | 25.4 | 70.3 | 100 | 75.9 | 98.4 | 77.8 | downregulate | upregulate | upregulated | – | – | – | – | – | – | – | – |
| O=C(CCCCCCC(=O)Nc1ccccc1)NO [SAHA, vorinostat, reference compound] | – | – | – | – | – | – | – | – | downregulate | upregulate | upregulated | 96.2 | 84 | 31.2 | 41.8 | 87.2 | 7.5 | 97.7 | 17.1 |
